# Values quoted from earlier work as cited in US8338382B2, “Method of treating impaired mitochondrial function” (priority 1997, dated 2012).
# Test system: depressed patients
# Conditions: literature (Sabelli 2002, 2000)
structure (smiles),measurement,value
"NCCc1ccccc1 [PEA, 2-Phenylethylamine]",share of depressed patients in whom PEA is effective / controls depression,60%
same,"toxic effects, tolerance or abuse","no toxic effects, tolerance or abuse"
